Results from US20060276464A1, “Diarylsulfone sulfonamides and use thereof” (Wyeth, priority 2005, published 2006).
Values joined by “and” are separate entries in the source; they are usually repeats but may differ in a detail not shown here. Equal entries are not always repeated. Where two headings read alike, the source gives them in different places.

Key:
SFRP-1 [1] = target: T1, SFRP-1 (Homo sapiens, UniProt Q8N474); assay: Fluorescence polarization binding assay (competitive displacement of a probe compound from SFRP-1); conditions: fluorescence anisotropy, 45 nM SFRP-1, 20 nM probe;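 further: test compound competes with a fluorescent probe held by SFRP-1, seen as a drop in probe anisotropy after incubation in darkness, with anisotropy as function of rising compound dose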
T1 sequence (Q8N474 32-314): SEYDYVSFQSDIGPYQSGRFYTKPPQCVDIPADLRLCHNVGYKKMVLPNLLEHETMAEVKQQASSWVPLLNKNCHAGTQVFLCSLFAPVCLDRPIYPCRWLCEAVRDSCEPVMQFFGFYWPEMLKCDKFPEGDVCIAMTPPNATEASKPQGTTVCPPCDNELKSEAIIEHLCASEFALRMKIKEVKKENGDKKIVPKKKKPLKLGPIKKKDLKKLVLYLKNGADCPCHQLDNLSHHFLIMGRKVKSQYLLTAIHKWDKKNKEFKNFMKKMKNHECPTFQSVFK

SFRP-1 [2] = target: T1, SFRP-1; assay: Cell-based assay for in vitro measurement of SFRP-1/SARP2 antagonist activity (U2OS cells co-transfected with 16x TCF-tk-Luciferase reporter, Wnt and hSFRP-1); conditions: for fold induction at 15 µM / fold induction at 10 µM: U2OS; for fold induction at 10 µM: read-out: Fold Induction with SFRP-1, U2OS cells, single dose 10 μM, luciferase reporter, fold induction over SFRP-1 control;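 on all read-outs here: U2OS cells co-transfected with a TCF-tk luciferase reporter, a Wnt vector, hSFRP-1 or empty vector and CMV-βgal, luciferase luminescence read in cell lysates alongside βgal activity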
[3] = read-out: Fold Induction with SFRP-1, Conc 15 μM, with SFRP-1, fold induction over SFRP-1 control, single dose
[4] = read-out: Fold Induction without SFRP-1, Conc 15 μM, without SFRP-1, single dose
[5] = read-out: Fold Induction with SFRP-1, Conc 15 μM, single dose, luciferase reporter, fold induction over SFRP-1 control, cells with SFRP-1
[6] = read-out: Fold Induction without SFRP-1, Conc 15 μM, single dose, luciferase reporter, cells without SFRP-1 (specificity control)

IC50 (SFRP-1 [1])	fold induction at 15 µM (SFRP-1 [2]; [3])	fold induction at 15 µM (SFRP-1 [2]; [4])	EC50 (SFRP-1 [2]) [nM]	fold induction at 10 µM (SFRP-1 [2])	fold induction at 15 µM (SFRP-1 [2]; [5])	fold induction at 15 µM (SFRP-1 [2]; [6])	Fold Induction with SFRP-1 (SFRP-1 [2]; U2OS cells, single dose 10 μM, luciferase reporter, fold induction over SFRP-1 control)	Compound
800 nM	3.2	1.1						Cc1ccc(S(=O)(=O)c2ccccc2)cc1S(=O)(=O)NC1CCN(S(=O)(=O)c2cccs2)CC1 [Example 482, 2-methyl-5-(phenylsulfonyl)-N-[1-(2-thienylsulfonyl)piperidin-4-yl]benzenesulfonamide]
1500 nM	2.4	1.1						Cc1ccc(S(=O)(=O)c2ccccc2)cc1S(=O)(=O)NC1CCN(C(=O)c2ccc3c(c2)OCO3)CC1 [Example 484, N-[1-(1,3-benzodioxol-5-ylcarbonyl)piperidin-4-yl]-2-methyl-5-(phenylsulfonyl)benzenesulfonamide]
800 nM	2.7	0.9						CNc1ccc(S(=O)(=O)c2ccc(C(C)C)c(S(=O)(=O)NCCC3CCOCC3)c2)cc1 [Example 359, 2-isopropyl-5-{[4-(methylamino)phenyl]sulfonyl}-N-[2-(tetrahydro-2H-pyran-4-yl)ethyl]benzenesulfonamide]
400 nM			452	3.7				COC(=O)CNC(=S)N1CCC(NS(=O)(=O)c2cc(S(=O)(=O)c3ccc(F)cc3)ccc2C(C)C)CC1 [Example 697, methyl N-({4-[({5-[(4-fluorophenyl)sulfonyl]-2-isopropylphenyl}sulfonyl)amino]piperidin-1-yl}carbonothioyl)glycinate]
120 nM			307	4.5				O=S(=O)(NCCc1cccnc1)c1cc(S(=O)(=O)c2ccc(O)cc2)ccc1C(F)(F)F [Example 814, 5-[(4-hydroxyphenyl)sulfonyl]-N-(2-pyridin-3-ylethyl)-2-(trifluoromethyl)benzenesulfonamide]
2100 nM					2	0.9		COC(=O)N1CCC(NS(=O)(=O)c2cc(S(=O)(=O)c3ccccc3)ccc2C)CC1 [Example 488, methyl 4-({[2-methyl-5-(phenylsulfonyl)phenyl]sulfonyl}amino)piperidine-1-carboxylate]
1000 nM	2	1.2						Cc1ccc(C(=O)N2CCC(NS(=O)(=O)c3cc(S(=O)(=O)c4ccccc4)ccc3C)CC2)cc1 [Example 468, 2-methyl-N-[1-(4-methylbenzoyl)piperidin-4-yl]-5-(phenylsulfonyl)benzenesulfonamide]
6000 nM				3.3				Cc1ccc(S(=O)(=O)c2ccc(F)cc2)cc1S(=O)(=O)NCC(O)c1cccnc1 (stereo not shown) [Example 740, 5-[(4-fluorophenyl)sulfonyl]-N-(2-hydroxy-2-pyridin-3-ylethyl)-2-methylbenzenesulfonamide]
800 nM			1360	3				CCCc1ccc(S(=O)(=O)c2ccccc2)cc1S(=O)(=O)NCCc1cccnc1 [Example 876, 5-(Phenylsulfonyl)-2-propyl-N-(2-pyridin-3-ylethyl)benzenesulfonamide]
50 nM			167					CC(=O)N1CC[C@H](C(=O)N2CCC(NS(=O)(=O)c3cc(S(=O)(=O)c4ccccc4)ccc3C(F)(F)F)CC2)C1 [Example 1065, N-(1-{[(3S)-1-acetylpyrrolidin-3-yl]carbonyl}piperidin-4-yl)-5-(phenylsulfonyl)-2-(trifluoromethyl)benzenesulfonamide]
900 nM			1770	2.1				CN(CCNS(=O)(=O)c1cc(S(=O)(=O)c2ccccc2)ccc1C(F)(F)F)C(=O)NCC(=O)O [Example 888, N-({methyl[2-({[5-(phenylsulfonyl)-2-(trifluoromethyl)phenyl]sulfonyl}amino)ethyl]amino}carbonyl)glycine]
6000 nM			2740	2.4				CC1(C)CC(NS(=O)(=O)c2cc(S(=O)(=O)c3ccccc3)ccc2C(F)(F)F)CC(C)(C)N1 [Example 948, 5-(phenylsulfonyl)-N-(2,2,6,6-tetramethylpiperidin-4-yl)-2-(trifluoromethyl)benzenesulfonamide]
4000 nM	1.9	1.1						Cc1ccc(S(=O)(=O)c2ccccc2)cc1S(=O)(=O)NC1CCN(C(=O)c2cccc(C(F)(F)F)c2)CC1 [Example 465, 2-methyl-5-(phenylsulfonyl)-N-{1-[3-(trifluoromethyl)benzoyl]piperidin-4-yl}benzenesulfonamide]
500 nM			807	3.8				O=S(=O)(NCCn1ccnc1)c1cc(S(=O)(=O)c2ccccc2F)ccc1C(F)(F)F [Example 845, 5-[(2-fluorophenyl)sulfonyl]-N-[2-(1H-imidazol-1-yl)ethyl]-2-(trifluoromethyl)benzenesulfonamide]
2200 nM					2.5	1.2		CC(C)c1ccc(S(=O)(=O)c2ccc(N3CCN(C)CC3)cc2)cc1S(=O)(=O)NCC1CCOCC1 [Example 548, 2-isopropyl-5-{[4-(4-methylpiperazin-1-yl)phenyl]sulfonyl}-N-(tetrahydro-2H-pyran-4-ylmethyl)benzenesulfonamide]
18000 nM							1.6	Cc1ccc(S(=O)(=O)c2ccc(F)cc2)cc1S(=O)(=O)NC1C[C@@H](C)O[C@@H](C)C1 (stereo partly drawn) [Example 841, N-[(2R*,4S*,6S*)-2,6-dimethyltetrahydro-2H-pyran-4-yl]-5-[(4-fluorophenyl)sulfonyl]-2-methylbenzenesulfonamide]
3000 nM				3				CC[C@H](CO)NS(=O)(=O)c1cc(S(=O)(=O)c2ccccc2)ccc1C(F)(F)F [Example 784, N-[(1R)-1-(hydroxymethyl)propyl]-5-(phenylsulfonyl)-2-(trifluoromethyl)benzenesulfonamide]
2800 nM			2730	2.3				COC(=O)[C@H]1CC[C@H](CNS(=O)(=O)c2cc(S(=O)(=O)c3ccccc3)ccc2C(C)C)CC1 [Example 934, methyl trans-4-[({[2-isopropyl-5-(phenylsulfonyl)phenyl]sulfonyl}amino)methyl]cyclohexanecarboxylate]
300 nM			1160	3.5				O=C(O)c1cccc(S(=O)(=O)Nc2ccc(CNS(=O)(=O)c3cc(S(=O)(=O)c4ccccc4)ccc3C(F)(F)F)cc2)c1 [Example 963]
1200 nM	3.3	1.3						Cc1ccc(S(=O)(=O)c2ccccc2)cc1S(=O)(=O)NCCn1ccnc1 [Example 314, N-[2-(1H-imidazol-1-yl)ethyl]-2-methyl-5-(phenylsulfonyl)benzenesulfonamide]
1800 nM					2.6	1.1		CC(C)c1ccc([S+]([O-])c2ccccc2)cc1S(=O)(=O)NCCc1ccccn1 (stereo not shown) [Example 575, 2-isopropyl-5-(phenylsulfinyl)-N-(2-pyridin-2-ylethyl)benzenesulfonamide]
1800 nM and 2300 nM					2.8	0.9		CC(C)c1ccc(S(=O)(=O)c2cc(Cl)sc2Cl)cc1S(=O)(=O)NCCc1ccccn1 [Example 511, 5-[(2,5-dichloro-3-thienyl)sulfonyl]-2-isopropyl-N-(2-pyridin-2-ylethyl)benzenesulfonamide]
4400 nM				1.7				CC(C)(C)OC(=O)N1CCC[C@H](NS(=O)(=O)c2cc(S(=O)(=O)c3ccccc3)ccc2C(F)(F)F)C1 [Example 786, tert-butyl(3S)-3-({[5-(phenylsulfonyl)-2-(trifluoromethyl)phenyl]sulfonyl}amino)piperidine-1-carboxylate]
300 nM			9400	3.3				O=C(c1ccc(C(F)(F)F)c(F)c1)N1CCC(NS(=O)(=O)c2cc(S(=O)(=O)c3ccccc3)ccc2C(F)(F)F)CC1 [Example 711, N-{1-[3-fluoro-4-(trifluoromethyl)benzoyl]piperidin-4-yl}-5-(phenylsulfonyl)-2-(trifluoromethyl)benzenesulfonamide]
2500 nM			2130	2.4				O=S(=O)(NCC1(O)CCCCC1)c1cc(S(=O)(=O)c2ccccc2)ccc1C(F)(F)F [Example 868, N-[(1-hydroxycyclohexyl)methyl]-5-(phenylsulfonyl)-2-(trifluoromethyl)benzenesulfonamide]
600 nM					3.2	1.1		CNc1ccc(S(=O)(=O)c2ccc(C(C)C)c(S(=O)(=O)NCCc3ccccn3)c2)cc1Cl [Example 605, 5-{[3-chloro-4-(methylamino)phenyl]sulfonyl}-2-isopropyl-N-(2-pyridin-2-ylethyl)benzenesulfonamide]
2900 nM	1.7	1						CC(=O)Nc1ccc(C(=O)N2CCC(NS(=O)(=O)c3cc(S(=O)(=O)c4ccccc4)ccc3C)CC2)cc1 [Example 480, N-(4-{[4-({[2-methyl-5-(phenylsulfonyl)phenyl]sulfonyl}amino)piperidin-1-yl]carbonyl}phenyl)acetamide]
